Assay results published in the supplement of paper PMC11061612.

Legend:
[1] = system: SW1710 (Bladder Carcinoma); assay: Bliss excess, mean over the matrix (fraction); higher = more synergy
How it was run: (§1)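 Cell lines grown in DMEM/F12 or RPMI with 10% FBS were plated in 1536-well plates and held 24 hours at 37°C, 5% CO2 before 72 hours of exposure to two-drug dose matrices, with DMSO typically at 0.2%. CellTiter-Glo 2.0 luminescence gave viability, which was converted to inhibition. Vehicle wells were set to 0 and blank wells to 1. Combination Emax is the second-highest inhibition in the matrix, and Bliss excess is the observed combination effect minus the expected EA + EB − EA·EB, where EA and EB are the single-agent effects.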

[2] = system: LNZTA3WT4 (Low Grade Glioma); assay: as above
How it was run: as §1

[3] = system: WSU-NHL (B-Cell Non-Hodgkin's Lymphoma); assay: as above
How it was run: as §1

[4] = system: TGBC1TKB (Biliary Tract Carcinoma); assay: as above
How it was run: as §1

MPP-89 (Mesothelioma) [5] = assay: as above
How it was run: as §1

[6] = system: HH (T-Cell Non-Hodgkin's Lymphoma); assay: as above
How it was run: as §1

[7] = system: HuCCT1 (Biliary Tract Carcinoma); assay: as above
How it was run: as §1

CAL-72 (Osteosarcoma) [8] = assay: as above
How it was run: as §1

[9] = system: BE-13 (T-Lymphoblastic Leukemia); assay: as above
How it was run: as §1

[10] = system: SNU-449 (Hepatocellular Carcinoma); assay: as above
How it was run: as §1

[11] = system: ESS-1 (Other Solid Carcinomas); assay: as above
How it was run: as §1

LOXIMVI (Melanoma) [12] = assay: as above
How it was run: as §1

GAMG (Glioblastoma) [13] = assay: as above
How it was run: as §1

A673 (Ewing's Sarcoma) [14] = assay: as above
How it was run: as §1

EW-11 (Ewing's Sarcoma) [15] = assay: as above
How it was run: as §1

[16] = system: YAPC (Pancreatic Carcinoma); assay: as above
How it was run: as §1

KS-1 (Glioblastoma) [17] = assay: as above
How it was run: as §1

[18] = system: LS-123 (Colorectal Carcinoma); assay: as above
How it was run: as §1

[19] = system: NCI-H524 (Small Cell Lung Carcinoma); assay: as above
How it was run: as §1

[20] = system: SAS (Oral Cavity Carcinoma); assay: as above
How it was run: as §1

[21] = system: OVCAR-5 (Ovarian Carcinoma); assay: as above
How it was run: as §1

[22] = system: SNU-16 (Gastric Carcinoma); assay: as above
How it was run: as §1

[23] = system: SW1710 (Bladder Carcinoma); assay: combination Emax (second highest fraction inhibited in the dose matrix, 72 h); higher = more inhibition; extreme values may be limits of the assay
How it was run: as §1

[24] = system: LNZTA3WT4 (Low Grade Glioma); assay: as above
How it was run: as §1

[25] = system: WSU-NHL (B-Cell Non-Hodgkin's Lymphoma); assay: as above
How it was run: as §1

[26] = system: TGBC1TKB (Biliary Tract Carcinoma); assay: as above
How it was run: as §1

MPP-89 (Mesothelioma) [27] = assay: as above
How it was run: as §1

[28] = system: HH (T-Cell Non-Hodgkin's Lymphoma); assay: as above
How it was run: as §1

[29] = system: HuCCT1 (Biliary Tract Carcinoma); assay: as above
How it was run: as §1

CAL-72 (Osteosarcoma) [30] = assay: as above
How it was run: as §1

[31] = system: BE-13 (T-Lymphoblastic Leukemia); assay: as above
How it was run: as §1

[32] = system: SNU-449 (Hepatocellular Carcinoma); assay: as above
How it was run: as §1

[33] = system: ESS-1 (Other Solid Carcinomas); assay: as above
How it was run: as §1

[34] = system: KYAE-1 (Esophageal Adenocarcinoma); assay: as above
How it was run: as §1

LOXIMVI (Melanoma) [35] = assay: as above
How it was run: as §1

GAMG (Glioblastoma) [36] = assay: as above
How it was run: as §1

A673 (Ewing's Sarcoma) [37] = assay: as above
How it was run: as §1

EW-11 (Ewing's Sarcoma) [38] = assay: as above
How it was run: as §1

[39] = system: YAPC (Pancreatic Carcinoma); assay: as above
How it was run: as §1

KS-1 (Glioblastoma) [40] = assay: as above
How it was run: as §1

[41] = system: LS-123 (Colorectal Carcinoma); assay: as above
How it was run: as §1

[42] = system: NCI-H524 (Small Cell Lung Carcinoma); assay: as above
How it was run: as §1

[43] = system: SAS (Oral Cavity Carcinoma); assay: as above
How it was run: as §1

[44] = system: OVCAR-5 (Ovarian Carcinoma); assay: as above
How it was run: as §1

[45] = system: SNU-16 (Gastric Carcinoma); assay: as above
How it was run: as §1
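Throughout, for Bliss excess, mean over the matrix: after 72 h of two-drug dosing.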

C=CCn1c(=O)c2cnc(Nc3ccc(N4CCN(C)CC4)cc3)nc2n1-c1cccc(C(C)(C)O)n1 [AZD1775] + Nc1ccn([C@@H]2O[C@H](CO)[C@@H](O)C2(F)F)c(=O)n1 [Gemcitabine] (first compound max 1 µM, partner max 0.3 µM)
Bliss excess [1]: 0.0838 | Bliss excess [2]: 0.0746 | Bliss excess [3]: -0.0035 | Bliss excess [4]: -0.02 | Bliss excess (MPP-89 (Mesothelioma) [5]): 0.0505 | Bliss excess [6]: -0.0316 | Bliss excess [7]: 0.0536 | Bliss excess (CAL-72 (Osteosarcoma) [8]): -0.0796 | Bliss excess [9]: 0.0778 | Bliss excess [10]: -0.0186 | Bliss excess [11]: 0.0774 | Bliss excess (LOXIMVI (Melanoma) [12]): -0.0118 | Bliss excess (GAMG (Glioblastoma) [13]): 0.0684 | Bliss excess (A673 (Ewing's Sarcoma) [14]): 0.039 | Bliss excess (EW-11 (Ewing's Sarcoma) [15]): -0.0613 | Bliss excess [16]: 0.109 | Bliss excess (KS-1 (Glioblastoma) [17]): 0.0304 | Bliss excess [18]: -0.0068 | Bliss excess [19]: 0.0443 | Bliss excess [20]: 0.0585 | Bliss excess [21]: 0.0364 | Bliss excess [22]: -0.013 | combination Emax [23]: 0.755 | combination Emax [24]: 0.886 | combination Emax [25]: 0.987 | combination Emax [26]: 0.454 | combination Emax (MPP-89 (Mesothelioma) [27]): 0.599 | combination Emax [28]: 0.574 | combination Emax [29]: 0.805 | combination Emax (CAL-72 (Osteosarcoma) [30]): 0.716 | combination Emax [31]: 1 | combination Emax [32]: 0.426 | combination Emax [33]: 1 | combination Emax [34]: 0.316 | combination Emax (LOXIMVI (Melanoma) [35]): 0.797 | combination Emax (GAMG (Glioblastoma) [36]): 0.805 | combination Emax (A673 (Ewing's Sarcoma) [37]): 0.937 | combination Emax (EW-11 (Ewing's Sarcoma) [38]): 0.758 | combination Emax [39]: 0.643 | combination Emax (KS-1 (Glioblastoma) [40]): 0.5 | combination Emax [41]: 0.68 | combination Emax [42]: 0.951 | combination Emax [43]: 0.996 | combination Emax [44]: 0.692 | combination Emax [45]: 0.998
